Among the test systems are HCT-15 colon; HL-60(TB) leukemia; HT29 colon; SNB-78 CNS; U251 CNS; DLD-1 colon; LXFL 529 NSCLC; BT-549 breast; MDA-MB-435.
Common to all, as to assay: NCI-60 cell line screen, 48 h

SMILES strings stand for the structures.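 Step 1: Grow cells in 96-well plates. Step 2: Expose to compound for 48 hours at 5 concentrations. Step 3: Interpolate endpoints linearly; if unreached, use highest concentration. Here, GI50 denotes the concentration required for 50% inhibition of growth. TGI: total growth inhibition.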

On to `CC(C)CCCC(C)[C@H]1CCC2C3CC=C4C[C@@H](OC(=O)CC(CC(=O)[O-])C(=O)[O-])CC[C@]4(C)C3CC[C@@]21C.N.N.[Pt+4]` (stereo partly drawn), for which the GI50 in the experiment on HCT-15 colon, with HL-60(TB) leukemia, with HT29 colon, in the experiment with SNB-78 CNS and in the experiment with U251 CNS was more than 100 µM throughout. Further, the TGI in the experiment with HCT-15 colon, in the experiment with HL-60(TB) leukemia, in the experiment on HT29 colon, in the experiment with SNB-78 CNS and in the experiment on U251 CNS was more than 100 µM each time.

Take `COc1ccccc1NC(=O)C1=C(C)NC(C)=C(C(=O)Nc2ccccc2OC)C1c1ccc(C2C(C(=O)Nc3ccccc3OC)=C(C)NC(C)=C2C(=O)Nc2ccccc2OC)cc1`: the TGI with DLD-1 colon was 2.66 µM; with HCT-15 colon, 7.49 µM; with HL-60(TB) leukemia it was 5.96 µM; with HT29 colon, 4.56 µM; in the experiment on LXFL 529 NSCLC, 5.09 µM; in the experiment with SNB-78 CNS, 23.3 µM. Further, the TGI in the experiment on U251 CNS was 7.01 µM.

Take `C=CC(=O)OCCCS(=O)(=O)[O-].C=CC(=O)OCCCS(=O)(=O)[O-].NC1CCCCC1N.[Pt+4]`: the GI50 in the experiment on DLD-1 colon, with HCT-15 colon, in the experiment on HL-60(TB) leukemia, in the experiment on HT29 colon, in the experiment with LXFL 529 NSCLC and with SNB-78 CNS was more than 25 µM in each case. Moreover, in the experiment on U251 CNS, the GI50 is more than 25 µM. For the same molecule, the TGI with DLD-1 colon, in the experiment with HCT-15 colon, in the experiment on HL-60(TB) leukemia, in the experiment with HT29 colon, with LXFL 529 NSCLC and in the experiment with SNB-78 CNS was more than 25 µM throughout. In addition, the TGI in the experiment on U251 CNS was more than 25 µM.

As to `COc1ccc(C2C(C(=O)O)=C(CO)Oc3cc4c(cc32)OCO4)c(OC)c1` (stereo not drawn), the TGI with DLD-1 colon, in the experiment on HCT-15 colon, with HL-60(TB) leukemia, in the experiment on HT29 colon, with SNB-78 CNS and in the experiment with U251 CNS was more than 100 µM in each case.

As for `CC(C(=O)c1ccc(O)cc1)C1(O)C(=O)Nc2c(Cl)cc(Cl)cc21` (stereo not drawn), the TGI in the experiment on DLD-1 colon was more than 100 µM; in the experiment on HCT-15 colon, more than 100 µM; in the experiment with HL-60(TB) leukemia it was 50.2 µM; in the experiment with HT29 colon it was more than 100 µM; with LXFL 529 NSCLC, more than 93.7 µM; in the experiment on SNB-78 CNS, more than 85.5 µM. Moreover, the TGI in the experiment on U251 CNS is more than 100 µM.

With `O=C(CC(=O)c1cccc2ccccc12)C(=O)Nc1nccs1`, the TGI in the experiment on DLD-1 colon, in the experiment with HCT-15 colon, in the experiment on HL-60(TB) leukemia, with HT29 colon, in the experiment on LXFL 529 NSCLC and in the experiment on SNB-78 CNS was more than 100 µM in each case. In addition, the TGI in the experiment on U251 CNS is more than 100 µM.

Consider `N#CC1=C(N)Oc2c(ccc3cccnc23)C1c1ccccc1` (stereo not drawn), for which the GI50 is 1.73 µM in the experiment with BT-549 breast and 0.193 µM in the experiment with MDA-MB-435. For the same molecule, the TGI in the experiment on BT-549 breast was 23.6 µM; in the experiment with DLD-1 colon, more than 100 µM; with HCT-15 colon it was more than 100 µM; with HL-60(TB) leukemia it was 2.07 µM; in the experiment with LXFL 529 NSCLC, more than 100 µM; in the experiment on MDA-MB-435, 0.661 µM. The TGI was 9.36 µM with SNB-78 CNS and 36.2 µM in the experiment with U251 CNS.

Consider `CC(C)(C)CC(C)(C)c1cc2c(O)c(c1)Cc1cc(C(C)(C)CC(C)(C)C)cc(c1O)Cc1cc(C(C)(C)CC(C)(C)C)cc(c1O)Cc1cc(C(C)(C)CC(C)(C)C)cc(c1O)Cc1cc(C(C)(C)CC(C)(C)C)cc(c1O)Cc1cc(C(C)(C)CC(C)(C)C)cc(c1O)Cc1cc(C(C)(C)CC(C)(C)C)cc(c1O)Cc1cc(C(C)(C)CC(C)(C)C)cc(c1O)C2`, for which the TGI in the experiment with DLD-1 colon, in the experiment on HCT-15 colon, in the experiment with HL-60(TB) leukemia, in the experiment on HT29 colon, with LXFL 529 NSCLC and with SNB-78 CNS was more than 100 µM in each case. Further, the TGI in the experiment on U251 CNS was more than 100 µM.

Regarding `O=c1c2cc(Br)ccc2n(C2OC(CO)C(O)C(O)C2O)c(=S)n1-c1ccccc1` (stereo not drawn), the TGI in the experiment with DLD-1 colon, in the experiment with HCT-15 colon, in the experiment on HL-60(TB) leukemia, in the experiment on HT29 colon, with LXFL 529 NSCLC and in the experiment on SNB-78 CNS was more than 100 µM in each case. The molecule also came in with a TGI with U251 CNS of more than 100 µM.

`CC/C(=N/O)C(C)C(=O)CCC(=O)Nc1ccc(Cl)cc1` (stereo not drawn): the TGI in the experiment on DLD-1 colon, in the experiment on HCT-15 colon, in the experiment on HL-60(TB) leukemia, in the experiment on HT29 colon, in the experiment on LXFL 529 NSCLC and in the experiment on SNB-78 CNS was more than 100 µM each time. The same molecule returned a TGI in the experiment on U251 CNS of more than 100 µM.

With `O=C(c1nc2ccc(Cl)cc2[nH]c1=O)C(O)c1cccc([N+](=O)[O-])c1` (stereo not drawn), the TGI in the experiment on DLD-1 colon is more than 100 µM; in the experiment on HCT-15 colon, more than 100 µM; in the experiment with HL-60(TB) leukemia it was 74.1 µM; with HT29 colon, 40.4 µM; in the experiment on LXFL 529 NSCLC, more than 100 µM; in the experiment with SNB-78 CNS, more than 100 µM. This molecule registered a TGI in the experiment with U251 CNS of more than 100 µM.

As to `CC1=CC[C@@H]2C(=O)C=CC=C[C@H]12.[C-]#[O+].[C-]#[O+].[C-]#[O+].[Fe]`, the GI50 in the experiment on DLD-1 colon, in the experiment with HCT-15 colon, with HL-60(TB) leukemia, with HT29 colon and with U251 CNS was more than 100 µM in each case. In addition, the TGI in the experiment with DLD-1 colon, in the experiment on HCT-15 colon, in the experiment on HL-60(TB) leukemia, with HT29 colon and in the experiment with U251 CNS was more than 100 µM throughout.

Consider `[N-]=[N+]=Nc1nnc(CCCCc2nnc(N=[N+]=[N-])o2)o1`, for which the TGI in the experiment with DLD-1 colon, with HCT-15 colon, in the experiment with HT29 colon, with LXFL 529 NSCLC, in the experiment on SNB-78 CNS and with U251 CNS was more than 100 µM in each case.

For `COC(=O)CCC(=O)Nc1cc(C)ccc1C`, the TGI in the experiment on DLD-1 colon, in the experiment on HL-60(TB) leukemia, with HT29 colon, in the experiment with LXFL 529 NSCLC, with SNB-78 CNS and with U251 CNS was more than 100 µM in each case.

For `CN(C)C(=S)/N=C(\N)N(C)C`, the TGI in the experiment with DLD-1 colon, in the experiment with HCT-15 colon, in the experiment on HL-60(TB) leukemia, with HT29 colon, with LXFL 529 NSCLC and with SNB-78 CNS was more than 100 µM throughout. The molecule further came in with a TGI with U251 CNS of more than 100 µM.

Source of the values: PubChem BioAssay (NCI).
